# Test system: 997726-040-R-J2-PDC tumor spheroids, viability
# Assay: Anticancer human tumor 997726-040-R-J2-PDC patient-derived squamous cell lung carcinoma cell line growth inhibition [PI3K]
# Details: spheroids with HUVEC and MSC; for IC50: curve of first compound; for viability, T/C: stronger effect = lower value
# Outline: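 Three cell types, namely tumor cells, endothelial cells and mesenchymal stem cells, formed each spheroid. Combinations with four PI3K inhibitors were screened at clinically achievable concentrations decreasing by half-log, and spheroid viability was recorded.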
# 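Also: spheroids exposed to compounds for seven days before readout.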
compound,measurement,setting,value
C=CC(=O)N1CCN(c2nc(=O)n(-c3c(C)ccnc3C(C)C)c3nc(-c4c(O)cccc4F)c(F)cc23)C(C)C1 (configuration not stated) + COc1c(OCCCN2CCOCC2)ccc2c3n(c(=NC(=O)c4cnc(N)nc4)nc12)CCN3,IC50,second compound 0.00316 µM,> 10000 nM
same,IC50,second compound 0.01 µM,> 10000 nM
same,IC50,second compound 0.0316 µM,< 31.6 nM
same,IC50,second compound 0.1 µM,< 31.6 nM
same,IC50,second compound 0.316 µM,< 31.6 nM
same,IC50,second compound 1 µM,< 31.6 nM
same,"viability, T/C","second compound 0.00316 µM, first compound 0.0316 µM",71.2%
same,"viability, T/C","second compound 0.00316 µM, first compound 0.1 µM",72.5%
same,"viability, T/C","second compound 0.00316 µM, first compound 0.316 µM",85.4%
same,"viability, T/C","second compound 0.00316 µM, first compound 1 µM",77.6%
same,"viability, T/C","second compound 0.00316 µM, first compound 3.16 µM",92.2%
same,"viability, T/C","second compound 0.00316 µM, first compound 10 µM",96.4%
same,"viability, T/C","second compound 0.01 µM, first compound 0.0316 µM",53%
same,"viability, T/C","second compound 0.01 µM, first compound 0.1 µM",57.5%
same,"viability, T/C","second compound 0.01 µM, first compound 0.316 µM",51.2%
same,"viability, T/C","second compound 0.01 µM, first compound 1 µM",62.9%
same,"viability, T/C","second compound 0.01 µM, first compound 3.16 µM",63.1%
same,"viability, T/C","second compound 0.01 µM, first compound 10 µM",57.1%
same,"viability, T/C","second compound 0.0316 µM, first compound 0.0316 µM",33.9%
same,"viability, T/C","second compound 0.0316 µM, first compound 0.1 µM",36%
same,"viability, T/C","second compound 0.0316 µM, first compound 0.316 µM",34.4%
same,"viability, T/C","second compound 0.0316 µM, first compound 1 µM",40.5%
same,"viability, T/C","second compound 0.0316 µM, first compound 3.16 µM",43.2%
same,"viability, T/C","second compound 0.0316 µM, first compound 10 µM",34.8%
same,"viability, T/C","second compound 0.1 µM, first compound 0.0316 µM",28%
same,"viability, T/C","second compound 0.1 µM, first compound 0.1 µM",24.4%
same,"viability, T/C","second compound 0.1 µM, first compound 0.316 µM",25.1%
same,"viability, T/C","second compound 0.1 µM, first compound 1 µM",23.3%
same,"viability, T/C","second compound 0.1 µM, first compound 3.16 µM",22.9%
same,"viability, T/C","second compound 0.1 µM, first compound 10 µM",21.8%
same,"viability, T/C","second compound 0.316 µM, first compound 0.0316 µM",6.57%
same,"viability, T/C","second compound 0.316 µM, first compound 0.1 µM",6.07%
same,"viability, T/C","second compound 0.316 µM, first compound 0.316 µM",5.29%
same,"viability, T/C","second compound 0.316 µM, first compound 1 µM",5.93%
same,"viability, T/C","second compound 0.316 µM, first compound 3.16 µM",4.93%
same,"viability, T/C","second compound 0.316 µM, first compound 10 µM",4.59%
same,"viability, T/C","second compound 1 µM, first compound 0.0316 µM",2.71%
same,"viability, T/C","second compound 1 µM, first compound 0.1 µM",1.42%
same,"viability, T/C","second compound 1 µM, first compound 0.316 µM",1.53%
same,"viability, T/C","second compound 1 µM, first compound 1 µM",1.33%
same,"viability, T/C","second compound 1 µM, first compound 3.16 µM",1.27%
same,"viability, T/C","second compound 1 µM, first compound 10 µM",1.57%

# Reference: PubChem BioAssay AID1963964 (Molecular Pharmacology Branch, DTP, NCI, 2024)
